Like-named read-outs stand apart in the source and are kept apart here.
Columns and labels:
PDE10A = molecular target: T1, PDE10A (Homo sapiens, UniProt Q9Y233); test: Inhibition of recombinant PDE10A (baculovirus/SF21 system), [3H]-cAMP SPA; type: biochemical; conditions: read-out: PDE10A IC50
T1 construct: made in house; host or cells: SF21 insect cells (baculovirus)
Description: Inhibition of Recombinant PDE10A (Baculovirus/SF21 System)
The gene was than inserted into a baculovirus vector, ligated with the baculovirus DNA. The enzyme-protein was expressed in SF21-cells. The enzyme was isolated from these cells by harvesting the cells by an centrifugation at 500 g to collect the cells.
The cells were resuspended in 50 mM Tris-HCl/1 mM EDTA/250 mM Sucrose buffer, pH=7.4 (Sigma, Deisenhofen, Germany; Merck, Darmstadt, Germany) and lysed by sonification of the cells (three times for 15 seconds, Labsonic U, Fa. Braun, Degersheim, Switzerland, level “high”). The cytosolic PDE10A was obtained by a centrifugation at 48,000 g for 1 h in the supernatant and stored at −70° C.
PDE activity was determined in a one step procedure in microtiter plates. The reaction mixture of 100 μl contained 50 mM Tris-HCl/5 mM MgCl2 buffer (pH=7.4, Sigma, Deisenhofen, Germany; Merck, Darmstadt, Germany) 0.1 μM [3H]-cAMP (Amersham, Buckinghamshire, UK) and the enzyme. Non-specific enzyme activity was determined without the enzyme. The reaction was initiated by addition of the substrate solution and was carried out at 37° C. for 30 minutes. Enzymatic activity then was stopped by addition of 25 μl Ysi-SPA-beads (Amersham-Pharmacia). One hour later the mixture was measured in a liquid scintillation counter for microtiter plates (Microbeta Trilux). The Biomek 2000 (Beckman) was used routinely for pipetting of the incubation mixture. […] For determination of IC50 values the Hill-plot, 2-parameter-model, was used.

PDE2A = molecular target: T2, PDE2A (Homo sapiens, UniProt O00408); test: Inhibition of recombinant PDE2A (expressed in baculovirus/SF21-cells), [3H]-cAMP SPA; type: biochemical
T2 construct: made in house; host or cells: SF21 insect cells (baculovirus)
T2 sequence (O00408 whole entry): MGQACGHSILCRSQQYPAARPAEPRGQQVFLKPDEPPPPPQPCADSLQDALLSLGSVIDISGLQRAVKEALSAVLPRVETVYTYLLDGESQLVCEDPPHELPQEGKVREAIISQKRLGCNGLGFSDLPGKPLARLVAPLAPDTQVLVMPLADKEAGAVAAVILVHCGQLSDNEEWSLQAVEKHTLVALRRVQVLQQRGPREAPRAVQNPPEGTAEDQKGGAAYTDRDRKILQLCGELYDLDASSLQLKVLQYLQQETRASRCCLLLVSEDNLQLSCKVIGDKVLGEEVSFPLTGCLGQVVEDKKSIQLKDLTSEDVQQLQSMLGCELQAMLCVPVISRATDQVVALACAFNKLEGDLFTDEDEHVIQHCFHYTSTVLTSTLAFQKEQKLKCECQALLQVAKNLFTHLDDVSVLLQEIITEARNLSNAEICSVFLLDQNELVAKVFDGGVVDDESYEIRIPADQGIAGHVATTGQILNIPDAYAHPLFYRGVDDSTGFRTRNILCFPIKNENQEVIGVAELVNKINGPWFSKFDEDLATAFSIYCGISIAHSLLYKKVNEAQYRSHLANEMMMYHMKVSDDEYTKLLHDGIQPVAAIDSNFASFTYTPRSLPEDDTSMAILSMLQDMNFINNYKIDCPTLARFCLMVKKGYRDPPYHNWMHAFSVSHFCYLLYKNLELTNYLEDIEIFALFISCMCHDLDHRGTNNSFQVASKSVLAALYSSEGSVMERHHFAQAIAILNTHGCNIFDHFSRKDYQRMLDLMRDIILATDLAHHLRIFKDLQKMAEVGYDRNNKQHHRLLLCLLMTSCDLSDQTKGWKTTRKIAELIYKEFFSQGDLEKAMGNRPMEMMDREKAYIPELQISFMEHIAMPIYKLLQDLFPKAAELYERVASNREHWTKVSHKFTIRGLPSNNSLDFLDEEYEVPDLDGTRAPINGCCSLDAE
Description: Inhibition of Recombinant PDE2A (Expressed in Baculovirus/SF21-Cells)
PDE2A (NM002599) was cloned and the gene was inserted in the baculovirus and the enzyme-protein expressed in SF21-cells. The enzyme was isolated from these cells by harvesting the cells by an centrifugation at 200 g to collect the cells. The cells were resuspended in 50 mM Tris-HCl/5 mM MgCl2 buffer (pH=7.4) (Sigma, Deisenhofen, Germany; Merck, Darmstadt, Germany) and lysed by a sonication of the cells (three times for 15 seconds, Labsonic U, Fa. Braun, Degersheim, Switzerland, level “high”). The membrane fraction of PDE2A was obtained by a centrifugation at 48 000 g for 1 h, resuspended in buffer and stored at −70° C.
PDE2A activity was determined in a one step procedure in microtiterplates. The reaction mixture of 100 μl contained 50 mM Tris-HCl/5 mM MgCl2 buffer (pH=7.4) (Sigma, Deisenhofen, Germany; Merck, Darmstadt, Germany), 0.5 μM [3H]-cAMP (Amersham, Buckinghamshire, UK), 1000 nM cGMP and the enzyme. Non-specific enzyme activity was tested in the absence of cGMP. The reaction was initiated by addition of the substrate solution and was carried out at 37° C. for 30 minutes. Enzymatic activity then was stopped by addition of 25 μl SPA-beads (Amersham-Pharmacia). One hour later the mixture was measured in a liquid scintillation counter for microtiterplates (Microbeta Trilux). For pipetting of the incubation mixture the robot Biomek (Fa. Beckman) was routinely used.
For determination of IC50 values the Hill-plot, 2-parameter-model, was used.

[1] = recombinant PDE10A1, cytosolic, 0.1 μM [3H]-cAMP, 37° C., 30 minutes

T1 sequence (Q9Y233 1-779 isoform Q9Y233-1): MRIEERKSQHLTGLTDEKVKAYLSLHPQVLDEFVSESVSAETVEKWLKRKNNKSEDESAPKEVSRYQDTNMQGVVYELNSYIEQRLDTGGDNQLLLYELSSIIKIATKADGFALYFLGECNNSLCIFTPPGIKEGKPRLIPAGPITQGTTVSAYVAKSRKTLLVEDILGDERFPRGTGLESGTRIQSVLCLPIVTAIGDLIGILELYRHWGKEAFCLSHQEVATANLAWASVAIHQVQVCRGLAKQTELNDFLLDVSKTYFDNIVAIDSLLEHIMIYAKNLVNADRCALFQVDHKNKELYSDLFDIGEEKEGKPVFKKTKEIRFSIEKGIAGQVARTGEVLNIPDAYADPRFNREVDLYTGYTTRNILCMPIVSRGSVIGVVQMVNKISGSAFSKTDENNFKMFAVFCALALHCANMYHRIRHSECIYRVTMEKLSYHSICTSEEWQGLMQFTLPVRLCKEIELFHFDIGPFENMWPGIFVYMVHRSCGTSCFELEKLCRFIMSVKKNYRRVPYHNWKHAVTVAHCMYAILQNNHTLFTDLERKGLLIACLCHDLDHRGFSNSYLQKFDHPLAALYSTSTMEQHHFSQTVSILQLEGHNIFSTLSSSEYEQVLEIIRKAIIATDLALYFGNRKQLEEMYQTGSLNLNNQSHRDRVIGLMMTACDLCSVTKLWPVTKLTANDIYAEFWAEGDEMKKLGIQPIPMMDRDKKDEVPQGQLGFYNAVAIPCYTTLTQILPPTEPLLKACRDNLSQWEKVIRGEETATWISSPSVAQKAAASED

IC50 (PDE10A; [1]) [nM]	IC50 (PDE2A) [nM]	Compound	IC50 (PDE10A) [nM]
57	> 1000	COc1cc(C(F)(F)F)cc2c1nnc1c(C)nc(-c3ccoc3)n12 [Example 143, 1-(Furan-3-yl)-6-methoxy-3-methyl-8-(trifluoromethyl)benzo[e]imidazo[5,1-c][1,2,4]triazine]	–
6.53	894	COc1ccccc1-c1nc(C)c2nnc3c(OC)cc(F)cc3n12 [Example 100, 8-fluoro-6-methoxy-1-(2-methoxyphenyl)-3-methylimidazo[5,1-c][1,2,4]benzotriazine]	–
10.7	61	COc1cc(F)c2nnc3c(C)nc(-c4cccc(F)c4C)n3c2c1 [Example 84, 6-fluoro-1-(3-fluoro-2-methylphenyl)-8-methoxy-3-methylimidazo[5,1-c][1,2,4]benzotriazine]	–
38.5	134	COc1cc(F)c2nnc3c(C)nc(-c4ccc(C)cc4F)n3c2c1 [Example 74, 6-fluoro-1-(2-fluoro-4-methylphenyl)-8-methoxy-3-methylimidazo[5,1-c][1,2,4]benzotriazine]	–
14.5	704	COc1ccc(Cl)cc1-c1nc(C)c2nnc3c(OC)cc(F)cc3n12 [Example 102, 1-(5-chloro-2-methoxyphenyl)-8-fluoro-6-methoxy-3-methylimidazo[5,1-c][1,2,4]benzotriazine]	–
7.99	14.2	COc1cc(F)c2nnc3c(C)nc(-c4cc(Cl)ccc4F)n3c2c1 [Example 88, 1-(5-chloro-2-fluorophenyl)-6-fluoro-8-methoxy-3-methylimidazo[5,1-c][1,2,4]benzotriazine]	–
3.01	324	COc1cc(F)cc2c1nnc1c(C)nc(-c3ccc(F)cc3Cl)n12 [Example 111, 1-(2-chloro-4-fluorophenyl)-8-fluoro-6-methoxy-3-methylimidazo[5,1-c][1,2,4]benzotriazine]	–
2.45	108	COc1ccc(Cl)c(-c2nc(C)c3nnc4c(OC)cc(F)cc4n23)c1 [Example 126, 1-(2-chloro-5-methoxyphenyl)-8-fluoro-6-methoxy-3-methylimidazo[5,1-c][1,2,4]benzotriazine]	–
65.7	16.5	COc1cc(F)c2nnc3c(C)nc(-c4cc(OC(F)(F)F)ccc4Cl)n3c2c1 [Example 83, 1-[2-chloro-5-(trifluoromethoxy)phenyl]-6-fluoro-8-methoxy-3-methylimidazo[5,1-c][1,2,4]benzotriazine]	–
0.7	80.6	COc1cc(OCc2ccccc2)cc2c1nnc1c(C)nc(-c3ccncc3C)n12 [Example 151, 8-(benzyloxy)-6-methoxy-3-methyl-1-(3-methylpyridin-4-yl)imidazo[5,1-c][1,2,4]benzotriazine]	–
0.85	50.4	COc1cc(N2CCOCC2)cc2c1nnc1c(C)nc(-c3ccccc3Cl)n12 [Example 65, 1-(2-chlorophenyl)-6-methoxy-3-methyl-8-morpholin-4-ylimidazo[5,1-c][1,2,4]benzotriazine]	–
386	585	COc1cc(F)c2nnc3c(C)nc(-c4cccnc4)n3c2c1 [Example 90, 6-fluoro-8-methoxy-3-methyl-1-pyridin-3-ylimidazo[5,1-c][1,2,4]benzotriazine]	–
10.6	–	COc1ccc(Cl)cc1-c1nc(C)c2nnc3c(OC)cc(C(F)(F)F)cc3n12 [Example 142, 1-(5-Chloro-2-methoxyphenyl)-6-methoxy-3-methyl-8-(trifluoromethyl)benzo[e]imidazo[5,1-c][1,2,4]triazine]	–
2.02	–	COc1cc(F)cc2c1nnc1c(C)nc(-c3cc(F)ccc3Cl)n12 [Example 118, 1-(2-chloro-5-fluorophenyl)-8-fluoro-6-methoxy-3-methylimidazo[5,1-c][1,2,4]benzotriazine]	–
45.5	39.4	COc1cncc(-c2nc(C)c3nnc4c(F)cc(OC)cc4n23)c1 [Example 95, 6-fluoro-8-methoxy-1-(5-methoxypyridin-3-yl)-3-methylimidazo[5,1-c][1,2,4]benzotriazine]	–
13	1430	COc1cc(F)cc2c1nnc1c(C)nc(-c3c(C)n[nH]c3C)n12 [Example 124, 1-(3,5-dimethyl-1H-pyrazol-4-yl)-8-fluoro-6-methoxy-3-methylimidazo[5,1-c][1,2,4]benzotriazine]	–
2.41	103	COc1cccc2c1nnc1c(C)nc(-c3ccccc3Cl)n12 [Example 61, 1-(2-chlorophenyl)-6-methoxy-3-methylbenzo[e]imidazo[5,1-c][1,2,4]triazine]	–
133	> 1000	COc1cc(F)cc2c1nnc1c(C)nc(-c3cnc(F)c(C)c3)n12 [Example 121, 8-fluoro-1-(6-fluoro-5-methylpyridin-3-yl)-6-methoxy-3-methylimidazo[5,1-c][1,2,4]benzotriazine]	–
6.31	654	COc1cc(F)cc2c1nnc1c(C)nc(-c3cc(C(N)=O)ccc3F)n12 [Example 128, 4-fluoro-3-(8-fluoro-6-methoxy-3-methylimidazo[5,1-c][1,2,4]benzotriazin-1-yl)benzamide]	–
53.1	40.3	COc1cc(F)c2nnc3c(C)nc(-c4c(C)n[nH]c4C)n3c2c1 [Example 96, 1-(3,5-dimethyl-1H-pyrazol-4-yl)-6-fluoro-8-methoxy-3-methylimidazo[5,1-c][1,2,4]benzotriazine]	–
7	944	COc1cc(OC(F)F)cc2c1nnc1c(C)nc(-c3cnccc3C)n12 [Example 150, 8-(difluoromethoxy)-6-methoxy-3-methyl-1-(4-methylpyridin-3-yl)benzo[e]imidazo[5,1-c][1,2,4]triazine]	–
122	127	COc1cc(F)c2nnc3c(C)nc(-c4cccnc4F)n3c2c1 [Example 94, 6-fluoro-1-(2-fluoropyridin-3-yl)-8-methoxy-3-methylimidazo[5,1-c][1,2,4]benzotriazine]	–
17.1	1060	COc1cc(F)cc2c1nnc1c(C)nc(-c3ccc(C)cc3F)n12 [Example 114, 8-fluoro-1-(2-fluoro-4-methylphenyl)-6-methoxy-3-methylimidazo[5,1-c][1,2,4]benzotriazine]	–
32.7	–	Cc1cnccc1-c1nc(C)c2nnc3c(Cl)cc(C(F)(F)F)cc3n12 [Example 132, 6-Chloro-3-methyl-1-(3-methylpyridin-4-yl)-8-(trifluoromethyl)imidazo[5,1-c][1,2,4]benzotriazine]	–
9.69	403	Cc1nc(-c2cc(Cl)ccc2Cl)n2c1nnc1c(Cl)cc(C(F)(F)F)cc12 [Example 133, 6-chloro-1-(2,5-dichlorophenyl)-3-methyl-8-(trifluoromethyl)imidazo[5,1-c][1,2,4]benzotriazine]	–
12.5	22.8	COc1cc(F)c2nnc3c(C)nc(-c4ccc(F)cc4Cl)n3c2c1 [Example 70, 1-(2-chloro-4-fluorophenyl)-6-fluoro-8-methoxy-3-methylimidazo[5,1-c][1,2,4]benzotriazine]	–
–	–	8-fluoro-6-methoxy-3-methyl-1-(2-methylpyridin-3-yl)imidazo[5,1-c][1,2,4]benzotriazine [Example 130]	7.84
7.13	–	COc1cc(F)cc2c1nnc1c(C)nc(-c3cc(C)ccc3F)n12 [Example 105, 8-fluoro-1-(2-fluoro-5-methylpehnyl)-6-methoxy-3-methylimidazo[5,1-c][1,2,4]benzotriazine]	–

Compound	IC50 (PDE10A; [1]) [nM]	IC50 (PDE2A) [nM]	IC50 (PDE10A) [nM]
8-fluoro-6-methoxy-3-methyl-1-(3-methylpyridin-4-yl)imidazo[5,1-c][1,2,4]benzotriazine [Example 131]	7.2	–	–

Reference: patent US20100120763A1, “IMIDAZO[5,1-C][1,2,4]BENZOTRIAZINE DERIVATIVES AS INHIBITORS OF PHOSPHODIESTERASES” (priority 2008, published 2010)
